Test in all cases: DTP human tumour cell line panel, 48 h
Assay [1] relates to CCRF-CEM leukemia.
In assay [2] the test system is HCT-15 colon.
Assay [3] relates to MDA-MB-231 breast.
The subject of assay [4] is MOLT-4 leukemia.
For assay [5], the system named is NCI-H226 lung.
Assay [6] has as its system NCI-H23 lung.
The subject of assay [7] is NCI-H522 lung.
For assay [8], the system named is SNB-75 CNS.
The subject of assay [9] is SR leukemia.
The test system of assay [10] is TK-10 renal.

Each structure is given as a SMILES string.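 Cells were grown in 96-well plates and exposed to each compound for 48 hours at five concentrations; endpoints were interpolated linearly between bracketing concentrations, or set to the highest concentration if not reached. At the GI50, growth is halved. TGI: total growth inhibition.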 Bounds are passed on as bounds.

Turning to `COc1cc(O)c2c(O)c3c(c4c2c1[C@]1(C4)C(C)=CCCC1(C)C)[C@H](O)[C@@]1(O)CC(=O)C(C(N)=O)=C(O)[C@@]1(O)C3=O`, the TGI in assay [1] is 0.185 µM; in [2], 1.45 µM; in assay [3] it was 1.17 µM; in assay [4], 1.76 µM; in assay [5], 0.951 µM; in [6] it was 1.34 µM. Besides, the TGI is 0.332 µM in [7], 0.794 µM in assay [8], 1.45 µM in assay [9] and 1.18 µM in [10].
Take `COc1cc2c3c(n(CCCCOC(=O)C(F)(F)F)c(=O)c2cc1OC)-c1cc2c(cc1C3=O)OCO2`: the GI50 was 5.01 µM in assay [1]; > 100 µM in [2]; 31.9 µM in [3]; 10.1 µM in assay [4]; 98.6 µM in assay [5]; > 100 µM in assay [6]. Besides, the results for the GI50 in assay [8], in assay [9] and in assay [10] were > 86.8 µM, 0.589 µM and > 100 µM, respectively. Moreover, the TGI in assay [1] is > 100 µM; in [2], > 100 µM; in [3] it was > 82.2 µM; in assay [4], > 77.3 µM; in [5] it was > 100 µM; in assay [6] it was > 100 µM. Further, the TGI in [7] was > 100 µM; in [8], > 100 µM; in [9], 13.4 µM; in assay [10], > 100 µM.
On to `COc1cc(-c2nc(Nc3nc4ccccc4[nH]3)nc(N)c2C#N)cc(OC)c1OC`, for which the GI50 in assay [1] is 6.17 µM; in [2] it was 18.1 µM; in [3] it was 13.1 µM; in assay [4] it was 18.2 µM; in assay [5], 32.7 µM; in assay [6], 12.2 µM. Also, the GI50 is 0.45 µM in assay [7], 0.308 µM in [8], 0.23 µM in assay [9] and 30.7 µM in assay [10]. The TGI in [1] was > 100 µM; in assay [2], > 100 µM; in assay [3], 92.4 µM; in assay [4], > 100 µM; in assay [5], > 89.3 µM; in [6] it was 40.2 µM. Moreover, the TGI in assay [7] is 3.61 µM; in assay [8], 49.9 µM; in assay [9], > 100 µM; in assay [10], > 100 µM.
On to `Cn1c2ccccc2c(=S)c2ccccc21`, for which the TGI in [1], in [2], in assay [3], in assay [4], in assay [5] and in assay [6] was > 100 µM each time. For the same molecule, the TGI in assay [7], in [8], in assay [9] and in [10] was > 100 µM in each case.
For `CC1=CC(=NC(=O)CBr)C=C/C1=N\S(=O)(=O)c1ccccc1`, the GI50 is 2.45 µM in assay [1]; 1.99 µM in [2]; 2.48 µM in assay [3]; 2.75 µM in assay [4]; 15.1 µM in [5]; 2.36 µM in [6]. Also, the GI50 in assay [7] is 1.61 µM; in [8] it was 13.5 µM; in assay [9], 3.41 µM; in assay [10], 2.85 µM. For the same molecule, the TGI in assay [1] turned out to be 8.16 µM; in [2], 4.67 µM; in [3], 6.42 µM; in assay [4] it was 9.65 µM; in [5], 40.2 µM; in assay [6] it was 5.99 µM. Further, the TGI in assay [7] came to 3.72 µM; in assay [8], 30.4 µM; in assay [9], 18.6 µM; in [10], 7.04 µM.
Turning to `Cn1cncc1[C@@](N)(c1ccc(Cl)cc1)c1ccc2c(c1)c(-c1cccc(Cl)c1)cc(=O)n2C`, the GI50 in assay [1] was 2.54 µM; in [2], 2.08 µM; in assay [3] it was 2.52 µM; in assay [4], 2.33 µM; in assay [5], 5.98 µM; in assay [6], 2.64 µM. Also, the GI50 in assay [7] is 0.655 µM; in assay [8], 4.68 µM; in assay [9], 0.165 µM; in assay [10], 2.57 µM. In addition, the TGI in assay [1] was 18.8 µM; in [2], 11.9 µM; in assay [3], 14.9 µM; in [4], 7.97 µM; in assay [5], 21.5 µM; in assay [6] it was 14.4 µM. Further, the TGI in assay [7] stood at 5.05 µM; in assay [8] it was 18.9 µM; in assay [9] it was 4.32 µM; in [10], 10.8 µM.
Turning to `COc1ccc2c(c1)C(=O)/C(=C/c1cccc(OCC(=O)Nc3nc4c(s3)CCCC4)c1)O2`, the GI50 in assay [1] is 0.863 µM; in assay [2], 1.54 µM; in assay [3], 1.18 µM; in assay [4], 0.93 µM; in assay [5], 11.3 µM; in assay [6], 0.636 µM. The GI50 is 0.704 µM in assay [7], 1.75 µM in assay [8], 0.156 µM in assay [9] and 0.45 µM in assay [10]. The TGI in assay [1] was > 100 µM; in assay [2] it was 3.19 µM; in assay [3], 5.38 µM; in assay [4], > 100 µM; in assay [5], 42.1 µM; in assay [6], 5.62 µM. Also, the TGI in assay [7] came to 2.25 µM; in assay [8], 12 µM; in assay [9], 0.351 µM; in assay [10], 0.934 µM.
In the case of `Cn1cc(C2=C(c3cccc4ccccc34)C(=O)NC2=O)c2ccccc21`, the GI50 in [1] was 8.3 µM; in assay [2] it was 6.66 µM; in assay [3], 8.74 µM; in [4], 7.9 µM; in assay [5] it was 7.7 µM; in [6], 8.92 µM. Moreover, the GI50 in assay [7] is 6.53 µM; in assay [8], 3.73 µM; in assay [9] it was 7 µM; in assay [10], 9.14 µM. The TGI in assay [1] is 24.5 µM; in assay [2], > 25 µM; in assay [3], > 25 µM; in assay [4], > 22.5 µM; in [5], > 25 µM; in assay [6], > 25 µM. Also, the TGI in assay [7] is 19.1 µM; in assay [8], > 25 µM; in assay [9] it was > 20.9 µM; in [10], > 23.9 µM.

For the origin of these results see PubChem BioAssay (NCI).
